Data on four compounds can be found in article PMC2671622 (Journal of Experimental Botany, 2009).

This experiment has as its target truncated recombinant AtGABA-T (no-target GABA-T) (Arabidopsis thaliana, UniProt Q94CE5). The experiment in a line: coupled SSADH assay, NADH at […] nm. Type of experiment: biochemical.

truncated recombinant AtGABA-T (no-target GABA-T), sequence (Q94CE5 37-504): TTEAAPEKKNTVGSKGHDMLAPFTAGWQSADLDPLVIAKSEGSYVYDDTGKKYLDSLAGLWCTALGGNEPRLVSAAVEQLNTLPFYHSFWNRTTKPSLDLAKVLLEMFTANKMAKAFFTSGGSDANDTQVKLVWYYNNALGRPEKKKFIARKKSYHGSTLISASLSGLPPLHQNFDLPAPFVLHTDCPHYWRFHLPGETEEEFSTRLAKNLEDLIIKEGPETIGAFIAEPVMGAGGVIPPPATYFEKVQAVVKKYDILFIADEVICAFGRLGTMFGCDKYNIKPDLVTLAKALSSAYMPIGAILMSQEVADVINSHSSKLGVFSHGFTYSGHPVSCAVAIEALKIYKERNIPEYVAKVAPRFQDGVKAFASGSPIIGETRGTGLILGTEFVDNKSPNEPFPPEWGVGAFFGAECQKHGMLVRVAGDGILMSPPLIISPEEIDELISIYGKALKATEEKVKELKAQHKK

Turning to `NCC(=O)O` [Glycine], the Ki (usually the dissociation constant of the complex between target and ligand, obtained from inhibition or displacement) stood at 3700 ± 460 µM.

`C=CC(N)CCC(=O)O` (stereo not shown) [Vigabatrin]: the Ki amounted to 620 ± 160 µM.

Take `NCCC(=O)O` [β-Alanine]: the Ki was found to be 550 ± 130 µM.

With `NCCC[C@H](N)C(=O)O` [Ornithine], the Ki came to 460 ± 120 µM.
